Test results as given in patent US10934274B2, “Quinoline derivatives as TAM RTK inhibitors” (Qurient Co., Ltd., priority 2015, dated 2021).

Columns and labels:
[1] = biological target: T1, Mer (Homo sapiens, UniProt Q12866); test: LanthaScreen Eu kinase binding assay, Mer; details: Tracer 236
T1 construct: purchased Life Technologies
T1 sequence (Q12866 21-999): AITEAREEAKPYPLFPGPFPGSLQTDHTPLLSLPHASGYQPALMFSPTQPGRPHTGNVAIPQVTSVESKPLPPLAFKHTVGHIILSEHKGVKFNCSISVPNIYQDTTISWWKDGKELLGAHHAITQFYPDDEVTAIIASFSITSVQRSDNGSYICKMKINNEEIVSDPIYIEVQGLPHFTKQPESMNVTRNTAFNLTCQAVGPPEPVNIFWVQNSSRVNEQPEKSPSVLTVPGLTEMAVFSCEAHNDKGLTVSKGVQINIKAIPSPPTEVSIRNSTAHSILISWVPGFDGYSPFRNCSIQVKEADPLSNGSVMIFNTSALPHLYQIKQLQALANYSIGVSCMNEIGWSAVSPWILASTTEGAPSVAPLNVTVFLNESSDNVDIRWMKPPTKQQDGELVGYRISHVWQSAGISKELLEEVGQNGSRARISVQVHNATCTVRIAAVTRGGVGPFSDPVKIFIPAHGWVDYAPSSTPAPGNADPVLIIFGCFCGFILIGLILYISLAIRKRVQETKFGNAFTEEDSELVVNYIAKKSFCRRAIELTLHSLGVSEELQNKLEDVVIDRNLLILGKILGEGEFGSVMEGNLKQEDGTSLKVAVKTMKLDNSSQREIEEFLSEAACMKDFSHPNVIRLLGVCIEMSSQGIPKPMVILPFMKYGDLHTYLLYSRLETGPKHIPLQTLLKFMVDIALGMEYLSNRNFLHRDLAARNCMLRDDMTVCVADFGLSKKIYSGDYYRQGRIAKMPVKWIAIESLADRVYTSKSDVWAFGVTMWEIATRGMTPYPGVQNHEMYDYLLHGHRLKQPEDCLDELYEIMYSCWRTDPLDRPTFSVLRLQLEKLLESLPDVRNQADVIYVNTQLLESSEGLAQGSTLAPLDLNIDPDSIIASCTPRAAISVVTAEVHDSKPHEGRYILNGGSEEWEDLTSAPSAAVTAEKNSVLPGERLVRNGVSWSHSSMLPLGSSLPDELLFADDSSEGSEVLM

[2] = biological target: T2, Axl (Homo sapiens, UniProt P30530); test: LanthaScreen Eu kinase binding assay, Axl; details: Tracer 236
T2 construct: purchased Life Technologies
T2 sequence (P30530 26-894): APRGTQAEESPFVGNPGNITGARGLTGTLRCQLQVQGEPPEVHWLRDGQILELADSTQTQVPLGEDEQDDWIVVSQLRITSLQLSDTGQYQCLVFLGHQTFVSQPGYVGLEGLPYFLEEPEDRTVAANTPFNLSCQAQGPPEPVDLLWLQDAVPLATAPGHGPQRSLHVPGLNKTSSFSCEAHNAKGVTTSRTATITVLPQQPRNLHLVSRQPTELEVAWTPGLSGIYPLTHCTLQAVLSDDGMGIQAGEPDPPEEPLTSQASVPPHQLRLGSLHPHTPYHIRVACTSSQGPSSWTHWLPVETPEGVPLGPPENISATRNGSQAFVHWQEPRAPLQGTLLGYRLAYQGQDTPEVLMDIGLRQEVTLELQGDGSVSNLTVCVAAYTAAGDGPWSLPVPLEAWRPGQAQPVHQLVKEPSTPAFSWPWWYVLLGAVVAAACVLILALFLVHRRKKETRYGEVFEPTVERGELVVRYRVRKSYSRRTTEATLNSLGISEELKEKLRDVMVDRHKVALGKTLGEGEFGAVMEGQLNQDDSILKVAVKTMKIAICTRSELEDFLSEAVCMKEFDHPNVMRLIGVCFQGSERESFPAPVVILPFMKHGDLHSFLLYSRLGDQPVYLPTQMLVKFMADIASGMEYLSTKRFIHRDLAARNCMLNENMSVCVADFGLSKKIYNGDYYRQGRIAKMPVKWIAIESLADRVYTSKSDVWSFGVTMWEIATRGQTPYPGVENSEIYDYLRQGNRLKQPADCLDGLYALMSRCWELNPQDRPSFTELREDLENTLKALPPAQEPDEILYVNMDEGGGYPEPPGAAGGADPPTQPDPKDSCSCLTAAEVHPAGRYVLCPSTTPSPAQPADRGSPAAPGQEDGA

[3] = biological target: T3, Met (Homo sapiens, UniProt P08581); test: LanthaScreen Eu kinase binding assay, Met; details: Tracer 236, read-out: cMet kinase binding activity (Kd)
T3 construct: purchased Life Technologies
T3 sequence (P08581 25-1390): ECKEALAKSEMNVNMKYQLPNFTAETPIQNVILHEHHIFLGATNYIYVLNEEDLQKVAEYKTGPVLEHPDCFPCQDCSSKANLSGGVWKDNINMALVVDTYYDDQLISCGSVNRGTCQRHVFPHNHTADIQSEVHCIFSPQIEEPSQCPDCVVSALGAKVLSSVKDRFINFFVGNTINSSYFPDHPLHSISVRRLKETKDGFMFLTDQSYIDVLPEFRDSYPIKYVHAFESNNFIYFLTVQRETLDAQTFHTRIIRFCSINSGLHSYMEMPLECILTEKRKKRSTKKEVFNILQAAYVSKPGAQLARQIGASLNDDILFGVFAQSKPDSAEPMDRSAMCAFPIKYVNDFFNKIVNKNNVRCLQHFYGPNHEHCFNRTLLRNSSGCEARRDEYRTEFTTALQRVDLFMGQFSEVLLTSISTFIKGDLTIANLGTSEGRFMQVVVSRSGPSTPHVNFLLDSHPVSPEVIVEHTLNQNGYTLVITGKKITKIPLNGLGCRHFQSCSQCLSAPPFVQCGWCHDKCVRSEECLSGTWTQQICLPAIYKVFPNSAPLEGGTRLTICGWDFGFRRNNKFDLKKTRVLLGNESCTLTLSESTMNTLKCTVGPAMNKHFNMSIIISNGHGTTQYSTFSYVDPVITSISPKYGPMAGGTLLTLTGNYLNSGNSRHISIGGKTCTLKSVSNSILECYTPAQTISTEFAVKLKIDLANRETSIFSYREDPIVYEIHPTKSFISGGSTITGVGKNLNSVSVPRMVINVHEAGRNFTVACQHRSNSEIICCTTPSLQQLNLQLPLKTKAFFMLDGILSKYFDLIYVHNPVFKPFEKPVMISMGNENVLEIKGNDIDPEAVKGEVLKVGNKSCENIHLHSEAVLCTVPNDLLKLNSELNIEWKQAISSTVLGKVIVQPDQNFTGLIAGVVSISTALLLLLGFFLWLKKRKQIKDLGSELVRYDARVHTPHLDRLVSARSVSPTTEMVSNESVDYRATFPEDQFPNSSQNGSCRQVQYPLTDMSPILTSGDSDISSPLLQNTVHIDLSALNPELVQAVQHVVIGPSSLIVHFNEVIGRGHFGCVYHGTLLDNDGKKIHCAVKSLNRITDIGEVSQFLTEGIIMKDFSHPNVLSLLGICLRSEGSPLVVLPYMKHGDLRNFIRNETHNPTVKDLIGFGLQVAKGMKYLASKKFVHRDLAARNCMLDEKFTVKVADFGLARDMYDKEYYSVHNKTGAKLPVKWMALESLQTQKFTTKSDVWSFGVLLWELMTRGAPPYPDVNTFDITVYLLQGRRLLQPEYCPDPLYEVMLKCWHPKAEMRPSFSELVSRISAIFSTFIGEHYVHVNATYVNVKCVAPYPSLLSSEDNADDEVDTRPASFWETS

Structure (SMILES) | Kd [1] | Kd [2] | Kd [3]
CCOc1cnn(-c2ccc(C(F)(F)F)cc2C(F)(F)F)c1C(=O)Nc1ccc(Oc2ccnc3cc(OC)c(OC)cc23)cn1 [Compound 110] | 100 to 1000 nM | < 100 nM | < 100 nM
COc1cc2nccc(Oc3ccc(NC(=O)c4nn(-c5cccnc5)cc4OCC(F)(F)F)nc3)c2cc1OC [Compound 185] | < 100 nM | < 100 nM | < 100 nM
CCOc1cn(-c2cncn2C)nc1C(=O)Nc1ccc(Oc2ccnc3cc(OC)c(OC)cc23)cn1 [Compound 11] | < 100 nM | < 100 nM | 100 to 1000 nM
CCOc1cn(-c2cnc(N)nc2)nc1C(=O)Nc1ccc(Oc2ccnc3cc(OC)c(OC)cc23)c(F)c1 [Compound 141] | < 100 nM | < 100 nM | < 100 nM
CCOc1cn(-c2ccc(F)cc2C(C)C)nc1C(=O)Nc1ccc(Oc2ccnc3cc(OC)c(OC)cc23)cn1 [Compound 125] | < 100 nM | < 100 nM | < 100 nM
CCOc1cn(-c2cnccc2C(C)(C)O)nc1C(=O)Nc1ccc(Oc2ccnc3cc(OC)c(OC)cc23)cn1 [Compound 184] | < 100 nM | < 100 nM | < 100 nM
CCOc1cn(-c2cnc(N)nc2)nc1C(=O)Nc1ccc(Oc2ccnc3cc(OC)c(OC)cc23)cn1 [Compound 10] | < 100 nM | < 100 nM | < 100 nM
CCOc1cn(-c2cncnc2C)nc1C(=O)Nc1ccc(Oc2ccnc3cc(OC)c(OC)cc23)cn1 [Compound 149] | < 100 nM | < 100 nM | < 100 nM
CCOc1cn(-c2cnccc2Cl)nc1C(=O)Nc1ccc(Oc2ccnc3cc(OC)c(OC)cc23)cc1F [Compound 194] | < 100 nM | < 100 nM | < 100 nM
CCOc1cn(-c2cnccc2CO)nc1C(=O)Nc1ccc(Oc2ccnc3cc(OC)c(OC)cc23)cc1F [Compound 209] | < 100 nM | < 100 nM | < 100 nM
CCOc1cn(-c2ccc(F)cc2F)nc1C(=O)Nc1ccc(Oc2ccnc3cc(OC)c(OC)cc23)cn1 [Compound 107] | < 100 nM | < 100 nM | < 100 nM
CCOc1cn(-c2cccnc2)nc1C(=O)Nc1ccc(Oc2ccnc3cc(OC(C)C)c(OC)cc23)cn1 [Compound 208] | < 100 nM | < 100 nM | < 100 nM
CCOc1cn(-c2ccc(Cl)c(CN(C)C)c2)nc1C(=O)Nc1ccc(Oc2ccnc3cc(OC)c(OC)cc23)cn1 [Compound 126] | < 100 nM | < 100 nM | < 100 nM
CCOc1cn(-c2ccc(C(C)C)cc2)nc1C(=O)Nc1ccc(Oc2ccnc3cc(OC)c(OC)cc23)cn1 [Compound 116] | < 100 nM | < 100 nM | 100 to 1000 nM
CCOc1cn(-c2ccc(Cl)cc2C(F)(F)F)nc1C(=O)Nc1ccc(Oc2ccnc3cc(OC)c(OC)cc23)cn1 [Compound 101] | < 100 nM | < 100 nM | < 100 nM
CCOc1cn(-c2cnccc2C(C)(O)CO)nc1C(=O)Nc1ccc(Oc2ccnc3cc(OC)c(OC)cc23)cn1 (stereo not drawn) [Compound 205] | < 100 nM | < 100 nM | < 100 nM
CCOc1cn(-c2nccnc2Cl)nc1C(=O)Nc1ccc(Oc2ccnc3cc(OC)c(OC)cc23)cn1 [Compound 177] | < 100 nM | < 100 nM | < 100 nM
CCOc1cn(-c2ccc(F)cc2C(F)(F)F)nc1C(=O)Nc1ccc(Oc2ccnc3cc(OC)c(OC)cc23)cn1 [Compound 104] | < 100 nM | < 100 nM | < 100 nM
CCOc1cnn(-c2cncs2)c1C(=O)Nc1ccc(Oc2ccnc3cc(OC)c(OC)cc23)cn1 [Compound 16] | < 100 nM | < 100 nM | 100 to 1000 nM
